The record followed here is publication PMC7552967, “Anti-Melanoma Activities of Artemisone and Prenylated Amino-Artemisinins in Combination With Known Anticancer Drugs” (Frontiers in Pharmacology, 2020).

One assay has as its system UACC62 melanoma cells. As to the kind of experiment: Sulforhodamine B (SRB) growth inhibition assay, UACC62. Type of assay: cell-based. Particulars: Homo sapiens, UACC-62, mean ± SD. An excerpt: The human cell lines TK10 (human kidney adenocarcinoma), UACC62 (human melanoma) and MCF7 (human breast adenocarcinoma) were obtained from the National Cancer Institute (NCI) as part of a panel widely studied for drug screening and molecular target identification. Melanoma (A375) and human embryonic kidney (HEK293) were acquired from the American Type Culture Collection; ATCC® CRL-1619™ and ATCC® CRL-1573™ respectively. The nontumorigenic human immortalized keratinocyte (HaCaT) cells were a kind donation by the School of Anatomical Sciences, Faculty of Health Sciences, University of the Witwatersrand, South Africa. […]
The growth inhibitory effects of the compounds were tested in the 3-cell line panel consisting of TK10 (renal), UACC62 (melanoma) and MCF7 (breast) cancer cells by Sulforhodamine B (SRB) assay. In addition, activity was also evaluated against HEK293 cells with the 3-(4,5-dimethylthiazol-2-yl)-2,5-diphenyl tetrazolium bromide (MTT) assay ([Mosmann, 1983]). […] The results were expressed as half maximal inhibitory concentrations (IC50) as described before ([Lewies et al., 2018]). […] After incubation, cell viability was determined using a microplate reader (BioTek®, Vermont, USA) at an excitation wavelength of 560 nm and emission wavelength of 630 nm with DMSO measured as a blank. […] Using the MTT assay data, IC50 values were calculated using GraphPad Prism 8. […]

In a further assay the test system is A375 melanoma cells. As to the kind of experiment: Intracellular ROS, DCFH-DA assay, A375. As to conditions: A375, 12 h treatment; result in words. Type of assay: cell-based, human. As for the experimental part: HaCat and A375 cells were seeded at 25,000 cells/well in 96-well plates (Black plate, Clear bottom, Corning, Costar®, NY, USA) and incubated until cells were ~90% confluent. Serum-free DMEM without phenol red (Thermo Fisher Scientific, Gibco, Carlsbad, CA, USA) was used for all experiments. Cells were exposed to compounds or H2O2 (500 µM) for 12 h. Cell staining with ROS fluorescent indicator 2’,7’-dichlorodihydrofluorescein diacetate (DCFH-DA) was performed 1.5 h before the end of the 12-h exposure time. A kinetic analysis was then performed at 37°C using a microplate reader (SpectraMax® ParadigmTM Molecular Devices, Sunnyvale, CA, USA) by measuring the DCF fluorescence (excitation 485 nm and emission 535 nm) every 10 min for 1 h. […] The Bradford assay (Coomassie blue colorimetric method) was then performed in order to determine the relative amount of protein per well, as an indication of cell number per well, and all fluorescence measurements were normalized relative to the cell number. The background fluorescence produced by blank medium controls and unstained but treated cell controls were subtracted from DCFH-DA stained cells. The DCF fluorescence measured at the beginning of the analysis (time 0) was subtracted from the DCF fluorescence at the indicated times for the kinetic analysis (results not shown). […]
The levels of intracellular ROS were determined using the DCFH-DA assay. […]

Structures are written as SMILES.

Broadly, the IC50 is the midpoint of a concentration-inhibition curve. Regarding `C[C@H]1[C@H](N2CCS(=O)(=O)CC2)O[C@@H]2O[C@@]3(C)CC[C@H]4[C@H](C)CC[C@@H]1[C@@]24OO3` [Artemisone 4, artemisone], the IC50 in the assay with UACC62 melanoma cells is 32.7 ± 3.47 µM.

Turning to `CC(C)=CCC/C(C)=C/CC/C(C)=C/CN1CCN([C@@H]2O[C@@H]3O[C@@]4(C)CC[C@H]5[C@H](C)CC[C@@H]([C@H]2C)[C@@]35OO4)CC1` [Farnesylpiperazine-DHA 7, farnesylpiperazine-DHA], the “Intracellular ROS (DCF fluorescence fold change vs untreated control)” value with A375 melanoma cells is on record as “not significantly higher than the untreated control”. Further, in the assay with UACC62 melanoma cells, the 50% inhibitory concentration (IC50) was found to be 2.15 ± 0.79 µM. For `CC(C)=CCC/C(C)=C/CN1CCN([C@@H]2O[C@@H]3O[C@@]4(C)CC[C@H]5[C@H](C)CC[C@@H]([C@H]2C)[C@@]35OO4)CC1` [Geranylpiperazine-DHA 6, geranylpiperazine-DHA], in the assay with A375 melanoma cells, the “Intracellular ROS (DCF fluorescence fold change vs untreated control)” value was “not significantly higher when compared to the untreated control”.
